SMILES strings stand for the structures. Bounds are passed on as bounds.

One experiment addresses T1, Monoglyceride lipase (Homo sapiens, UniProt Q99685).
T1 sequence (Q99685 whole entry): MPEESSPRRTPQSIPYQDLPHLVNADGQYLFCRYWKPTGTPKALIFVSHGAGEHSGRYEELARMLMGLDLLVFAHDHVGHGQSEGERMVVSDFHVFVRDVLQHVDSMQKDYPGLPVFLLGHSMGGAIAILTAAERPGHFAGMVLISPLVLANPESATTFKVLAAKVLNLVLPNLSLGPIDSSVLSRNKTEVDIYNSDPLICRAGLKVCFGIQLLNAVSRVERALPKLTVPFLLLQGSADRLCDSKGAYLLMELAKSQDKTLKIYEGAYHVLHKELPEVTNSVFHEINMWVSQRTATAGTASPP
The experiment is described as follows: This medium throughput assay involved a 96-well plate format in which hMGL activity was monitored by the hydrolysis of the substrate 7-hydroxy-6-methoxy-4-methylcoumarin ester (AHMMCE) to form the fluorescent product, coumarin. […] Upon the addition of AHMMCE, the reaction was incubated at 25° C. for 120 min; fluorescence readings were taken every 15 min at 360 nm/460 nm (λexcitation/λemission) using a Synergy HT Plate Reader (Bio-Tek, Winooski, Vt.). […] External standards were used to convert relative fluorescence units to the amount of 4-methylcoumarin formed.

The nature of experiment [1]: Fluorescent Assay: hABHD6:Initial Fluorescent Inhibition Assay (3-Point)—In each well of a 96-well plate 8 μL of membrane fraction containing full-length hABHD6 (1 μg total protein) was mixed with 168 μL of assay buffer (50 mM Tris-HCl, pH 7.6), and 20 μL of diluted compound (diluted in a dilution buffer consisting of 50% DMSO/50% assay buffer v/v). Each plate was incubated at RT for 15 minutes before adding 4 μL of 1 mM AHMMCE substrate (final concentration of 20 μM AHMMCE and final volume of 200 μL). The reaction was allowed to proceed for 1 hr at RT before the fluorescence was read at λex 360 nm and λem 460 nm and the inhibition calculated. Each experiment can test 8 compounds at three concentrations (usually 10 μM, 1 μM, and 100 nM).

A word on the IC50: it is the concentration at which inhibition is half-maximal. As for `O=C(OC(C(F)(F)F)C(F)(F)F)N1Cc2ccc(N3CCS(=O)(=O)CC3)cc2C1`, the IC50 on Monoglyceride lipase is > 1 µM.
Take `O=C(OC(C(F)(F)F)C(F)(F)F)N1CCC2(CC(OC(c3ccc(F)cc3)c3ccc(F)cc3)C2)C1` (configuration not stated): the half-maximal inhibitory concentration (IC50) in experiment [1] was > 1 µM.

Values taken from ChEMBL document CHEMBL5727717, “ABHD6 and dual ABHD6/MGL inhibitors and their uses” (2020).
